From ChEMBL document CHEMBL2380208, “Novel quinoline derivatives as inhibitors of bacterial DNA gyrase and topoisomerase IV” (Bioorg Med Chem Lett, 2013)
≈ marks a conversion by molar mass, not a printed value.

Columns and labels:
Staphylococcus aureus [1] = test: Antibacterial activity against fluoroquinolone-resistant Staphylococcus aureus 1095 infected in mouse assessed as survival compound administered 0.5 to 4 hrs post-infection measured after 7 days; assay type: functional; details: read-out: PD50
Streptococcus pyogenes [2] = test: Antibacterial activity against Streptococcus pyogenes; assay type: functional
[3] = Clearance in rat at 2 mg/kg, iv and 5 mg/kg, po; assay type: ADME, organism-based; details: in vivo
Staphylococcus aureus [4] = test: Antibacterial activity against Staphylococcus aureus; assay type: functional
Staphylococcus aureus [5] = test: Antibacterial activity against fluoroquinolone-resistant Staphylococcus aureus harboring DNA gyrase D83N mutant; assay type: functional
Staphylococcus aureus [6] = test: Antibacterial activity against fluoroquinolone-resistant Staphylococcus aureus harboring DNA gyrase M121K mutant; assay type: functional
Staphylococcus aureus [7] = test: Antibacterial activity against fluoroquinolone-resistant Staphylococcus aureus 1095; assay type: functional
DNA gyrase = DNA gyrase (Staphylococcus aureus, UniProt P0A0K8+P20831); test: Inhibition of Staphylococcus aureus DNA gyrase; assay type: protein-complex assay
[8] = Inhibition of Staphylococcus aureus DNA topoisomerase 4
[9] = Inhibition of human DNA topoisomerase 4
Staphylococcus aureus [10] = test: Antibacterial activity against Staphylococcus aureus 1146; assay type: functional
[11] = molecular target: Voltage-gated inwardly rectifying potassium channel KCNH2 (Homo sapiens, UniProt Q12809); test: Inhibition of human ERG channel in HEK293 cells by voltage-gated patch clamp technique; assay type: cell-based
Chain of Voltage-gated inwardly rectifying potassium channel KCNH2 (Q12809 whole entry): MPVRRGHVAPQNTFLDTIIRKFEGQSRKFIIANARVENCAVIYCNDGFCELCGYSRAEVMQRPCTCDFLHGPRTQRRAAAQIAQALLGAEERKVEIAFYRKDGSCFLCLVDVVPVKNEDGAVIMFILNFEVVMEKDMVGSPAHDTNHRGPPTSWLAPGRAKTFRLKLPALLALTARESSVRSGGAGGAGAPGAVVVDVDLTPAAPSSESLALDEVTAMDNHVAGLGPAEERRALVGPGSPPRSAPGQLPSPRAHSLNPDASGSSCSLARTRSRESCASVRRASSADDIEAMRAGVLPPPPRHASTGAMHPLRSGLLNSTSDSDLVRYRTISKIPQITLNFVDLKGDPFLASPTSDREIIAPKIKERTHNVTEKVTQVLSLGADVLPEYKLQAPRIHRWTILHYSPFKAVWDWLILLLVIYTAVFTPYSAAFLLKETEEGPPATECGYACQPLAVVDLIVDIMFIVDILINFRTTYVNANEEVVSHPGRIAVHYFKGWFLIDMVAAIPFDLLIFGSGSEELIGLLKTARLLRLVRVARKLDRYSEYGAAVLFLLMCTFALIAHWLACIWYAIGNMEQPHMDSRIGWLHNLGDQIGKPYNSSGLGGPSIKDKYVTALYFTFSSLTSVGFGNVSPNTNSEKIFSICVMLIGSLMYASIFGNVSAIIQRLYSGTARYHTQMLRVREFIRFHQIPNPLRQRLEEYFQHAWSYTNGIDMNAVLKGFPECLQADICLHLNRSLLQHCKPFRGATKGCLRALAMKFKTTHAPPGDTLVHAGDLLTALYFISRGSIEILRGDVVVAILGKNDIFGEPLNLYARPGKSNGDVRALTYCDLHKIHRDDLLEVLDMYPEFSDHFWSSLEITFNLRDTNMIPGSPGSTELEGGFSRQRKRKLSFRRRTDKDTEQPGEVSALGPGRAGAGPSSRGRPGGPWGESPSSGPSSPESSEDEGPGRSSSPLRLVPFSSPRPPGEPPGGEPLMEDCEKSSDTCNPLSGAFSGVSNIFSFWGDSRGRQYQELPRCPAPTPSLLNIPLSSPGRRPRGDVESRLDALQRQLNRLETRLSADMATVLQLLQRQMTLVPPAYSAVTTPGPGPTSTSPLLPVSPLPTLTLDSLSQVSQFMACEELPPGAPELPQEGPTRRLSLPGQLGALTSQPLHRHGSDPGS

[12] = Volume of distribution at steady state in rat at 2 mg/kg, iv and 5 mg/kg, po; assay type: ADME, organism-based; details: in vivo, read-out: Vdss
[13] = Oral bioavailability in rat at 5 mg/kg; assay type: ADME, organism-based; details: in vivo
[14] = Inhibition of Streptococcus pneumoniae topoisomerase 4
[15] = Inhibition of Streptococcus pneumoniae DNA gyrase
DNA gyrase subunit A [16] = molecular target: DNA gyrase subunit A (Staphylococcus aureus, UniProt P20831, D83N); test: Inhibition of Staphylococcus aureus DNA gyrase D83N mutant
DNA gyrase subunit A [17] = molecular target: DNA gyrase subunit A (Staphylococcus aureus, UniProt P20831, M121K); test: Inhibition of Staphylococcus aureus DNA gyrase M121K mutant
Streptococcus pyogenes [18] = test: Antibacterial activity against Streptococcus pyogenes 02C0203 infected in mouse assessed as survival compound administered 0.5 to 4 hrs post-infection measured after 7 days; details: 02C0203, in Mus musculus, read-out: PD50

For `COc1ccc2ncc(F)c([C@@H](O)CC[C@@H]3CCN(CCSc4cccs4)C[C@@H]3C(=O)O)c2c1`, the ED50 (Staphylococcus aureus [1]) was 22.1 mg/kg, the MIC90 (Streptococcus pyogenes [2]) was 0.25 µg/mL (≈ 0.495 µM) and the clearance [3] was 32.7 mL/min/kg. The MIC90 (Staphylococcus aureus [4]) was 0.125 µg/mL (≈ 0.248 µM), the MIC (Staphylococcus aureus [5]) was 32 µg/mL (≈ 63.4 µM) and the MIC (Staphylococcus aureus [6]) was 64 µg/mL (≈ 127 µM). The MIC (Staphylococcus aureus [7]) was 0.125 µg/mL (≈ 0.248 µM), the IC50 (DNA gyrase) was 1.56 µM and the IC50 [8] was 30.4 µM. For the same molecule, the IC50 [9] was > 200 µM, the MIC (Staphylococcus aureus [10]) was ≤ 0.063 µg/mL and the IC50 [11] was 23.6 µM. For the same molecule, the Vd [12] was 2.55 L/kg and the bioavailability [13] was 31.5%.

`COc1ccc2nccc([C@@H](O)CC[C@@H]3CCN(C4CC(c5ccccc5)C4)C[C@@H]3C(=O)O)c2c1` (some centres not stated) showed an ED50 (Staphylococcus aureus [1]) of 6.9 mg/kg, an MIC90 (Streptococcus pyogenes [2]) of 1 µg/mL (≈ 2.11 µM) and a clearance [3] of 43.1 mL/min/kg. The MIC90 (Staphylococcus aureus [4]) was 0.25 µg/mL (≈ 0.527 µM), the MIC (Staphylococcus aureus [5]) was ≥ 32 µg/mL and the MIC (Staphylococcus aureus [6]) was ≥ 64 µg/mL. For the same molecule, the MIC (Staphylococcus aureus [7]) was 0.2 µg/mL (≈ 0.421 µM), the IC50 (DNA gyrase) was 1.19 µM and the IC50 [8] was 32.1 µM. For the same molecule, the IC50 [9] was > 200 µM, the IC50 [14] was 8.37 µM and the IC50 [15] was 8.84 µM. The MIC (Staphylococcus aureus [10]) was 0.09 µg/mL (≈ 0.19 µM), the IC50 (DNA gyrase subunit A [16]) was > 200 µM and the IC50 (DNA gyrase subunit A [17]) was > 200 µM. The IC50 [11] was 24.9 µM, the ED50 (Streptococcus pyogenes [18]) was 14.1 mg/kg and the Vd [12] was 1.24 L/kg. The bioavailability [13] was 27%.

With `COc1ccc2nccc([C@@H](O)CC[C@@H]3CCN(C4CC(c5cc(F)ccc5F)C4)C[C@@H]3C(=O)O)c2c1` (some centres not stated) the ED50 (Staphylococcus aureus [1]) was 28.2 mg/kg, the MIC90 (Streptococcus pyogenes [2]) was 1 µg/mL (≈ 1.96 µM) and the clearance [3] was 43.9 mL/min/kg. The MIC90 (Staphylococcus aureus [4]) was 0.25 µg/mL (≈ 0.49 µM), the MIC (Staphylococcus aureus [5]) was 10 µg/mL (≈ 19.6 µM) and the MIC (Staphylococcus aureus [6]) was 5.7 µg/mL (≈ 11.2 µM). It also gave an MIC (Staphylococcus aureus [7]) of 0.5 µg/mL (≈ 0.979 µM), an IC50 (DNA gyrase) of 3 µM and an IC50 [8] of 9.62 µM. It also gave an MIC (Staphylococcus aureus [10]) of 0.25 µg/mL (≈ 0.49 µM), an IC50 [11] of 9.97 µM and an ED50 (Streptococcus pyogenes [18]) of 32.5 mg/kg. For the same molecule, the Vd [12] was 1.3 L/kg and the bioavailability [13] was 47%.
